The values below come from paper PMC10947850 (Angewandte Chemie (International ed. in English), 2024).

This experiment has as its system Fub7. The experiment in a line: steady-state kinetics of aldehyde alkylation. It is filed as biochemical. The settings on record: co-substrate O-acetyl-L-homoserine; native nucleophile; PLP enzyme.

As to `CCCCCC=O` [n-hexanal], the Km was 11 mM.

As usually defined, the Km is the substrate concentration at which the rate is half of its maximum.
